Data: patent US20240216392A1, “METHODS OF TREAMENT” (Arena Pharmaceuticals, Inc., priority 2022, published 2024)
Read-outs that look alike come from different tables or passages of the source.

Legend:
[1] = system: CYP3A4, CYP2D6, P-gp
[2] = system: plasma protein; assay: clinical; conditions: human, oral
[3] = Phase 1 multiple-dose study, plasma PK; assay type: in vivo, human; conditions: for half-life / Tmax / Cmax / AUC: both sexes, human, plasma, oral; for AUC: read-out: Plasma AUCtau, geometric mean (geometric CV %)
Method: Subjects were enrolled to 1 of 2 dosage regimens. Subject enrollment was stratified by sex to ensure approximate sex balance in each cohort.
(§1) Morning doses were administered following a standard light breakfast (e.g., milk and cereal, toast, and fruit) on all days. TID dosing (three times a day) was approximately 8 hours apart. Subjects fasted from midnight onwards, until the morning breakfast each day. There was no fluid restriction during the study, but subjects should not have consumed excessive amounts of fluid on any day.
The Phase 1, open-label, multiple-dose study of Example 1 was conducted for Cohorts 1-3, 4A, and 4B.
as §1, with “hours apart, and BID dosing (two times a day) was 12 hours” for “hours”, “were” for “should”, “to consume” for “have consumed”

SMILES: C[C@H]1CN2CCNCc3ccc(C(=O)NCC(F)F)c1c32 [Compound 1, (R)—N-(2,2-difluoroethyl)-7-methyl-1,2,3,4,6,7-hexahydro-[1,4]diazepino[6,7,1-hi]indole-8-carboxamide]
- safety and tolerability ([1]; alone or in combination with other probe substrates): safe and generally well-tolerated
- substrate for CYP3A4, CYP2D6 or P-gp ([1]; lack of effect of quinidine on exposure): not a substrate for CYP3A4, CYP2D6, or P-gp
- fraction unbound at 11 day ([2]; 6 mg, Day 11, Cohort 1 (6 mg TID)): 0.969
- fraction unbound at 11 day ([2]; 12 mg, Day 11, Cohort 2 (12 mg TID)): 0.968
- fraction unbound at 11 day ([2]; 12 mg, Day 11, Cohort 3 (12 mg BID)): 0.93
- fraction unbound at 11 day ([2]; 15 mg, Day 11, Cohort 4A (15 mg BID)): 0.913
- fraction unbound at 11 day ([2]; 18 mg, Day 11, Cohort 4B (18 mg BID)): 0.926
- average plasma concentrations over the dosing interval, comparability ([3]; Cohort 2 (12 mg TID) vs Cohort 4B (18 mg BID)): ~28%
- Plasma Cavg, geometric mean (geometric CV %) ([3]; Day 8, Cohort 1 (6 mg TID)): 9.947 (2.6843) ng/mL
- Plasma Ctrough, geometric mean (geometric CV %) ([3]; Day 8, Cohort 1 (6 mg TID)): 5.150 (1.6616) ng/mL
- Plasma Cavg, geometric mean (geometric CV %) ([3]; Day 8, Cohort 2 (12 mg TID)): 26.19 (14.697) ng/mL
- Plasma Ctrough, geometric mean (geometric CV %) ([3]; Day 8, Cohort 2 (12 mg TID)): 14.96 (9.9859) ng/mL
- Plasma Cavg, geometric mean (geometric CV %) ([3]; Day 8, Cohort 3 (12 mg BID)): 14.42 (6.4875) ng/mL
- Plasma Ctrough, geometric mean (geometric CV %) ([3]; Day 8, Cohort 3 (12 mg BID)): 4.892 (2.8780) ng/mL
- Plasma Cavg, geometric mean (geometric CV %) ([3]; Day 8, Cohort 4A (15 mg BID)): 16.64 (4.4047) ng/mL
- Plasma Ctrough, geometric mean (geometric CV %) ([3]; Day 8, Cohort 4A (15 mg BID)): 5.557 (2.3832) ng/mL
- Plasma Cavg, geometric mean (geometric CV %) ([3]; Day 8, Cohort 4B (18 mg BID)): 20.62 (8.3690) ng/mL
- Plasma Ctrough, geometric mean (geometric CV %) ([3]; Day 8, Cohort 4B (18 mg BID)): 7.427 (3.4830) ng/mL
- Plasma Cavg, geometric mean (geometric CV %) ([3]; Day 9, Cohort 1 (6 mg TID)): 11.03 (3.3822) ng/mL
- Plasma Ctrough, geometric mean (geometric CV %) ([3]; Day 9, Cohort 1 (6 mg TID)): 5.181 (1.9717) ng/mL
- Plasma Cavg, geometric mean (geometric CV %) ([3]; Day 9, Cohort 2 (12 mg TID)): 27.22 (17.047) ng/mL
- Plasma Ctrough, geometric mean (geometric CV %) ([3]; Day 9, Cohort 2 (12 mg TID)): 14.74 (13.800) ng/mL
- Plasma Cavg, geometric mean (geometric CV %) ([3]; Day 9, Cohort 3 (12 mg BID)): 14.85 (6.1228) ng/mL
- Plasma Ctrough, geometric mean (geometric CV %) ([3]; Day 9, Cohort 3 (12 mg BID)): 4.864 (2.7031) ng/mL
- Plasma Cavg, geometric mean (geometric CV %) ([3]; Day 9, Cohort 4A (15 mg BID)): 17.84 (4.6403) ng/mL
- Plasma Ctrough, geometric mean (geometric CV %) ([3]; Day 9, Cohort 4A (15 mg BID)): 6.497 (2.3570) ng/mL
- Plasma Cavg, geometric mean (geometric CV %) ([3]; Day 9, Cohort 4B (18 mg BID)): 22.23 (10.604) ng/mL
- Plasma Ctrough, geometric mean (geometric CV %) ([3]; Day 9, Cohort 4B (18 mg BID)): 7.066 (4.3229) ng/mL
- Plasma Cavg, geometric mean (geometric CV %) ([3]; Day 10, Cohort 1 (6 mg TID)): 10.71 (2.8291) ng/mL
- Plasma Ctrough, geometric mean (geometric CV %) ([3]; Day 10, Cohort 1 (6 mg TID)): 5.730 (1.7982) ng/mL
- Plasma Cavg, geometric mean (geometric CV %) ([3]; Day 10, Cohort 2 (12 mg TID)): 27.73 (18.586) ng/mL
- Plasma Ctrough, geometric mean (geometric CV %) ([3]; Day 10, Cohort 2 (12 mg TID)): 14.30 (11.743) ng/mL
- Plasma Cavg, geometric mean (geometric CV %) ([3]; Day 10, Cohort 3 (12 mg BID)): 14.14 (6.2142) ng/mL
- Plasma Ctrough, geometric mean (geometric CV %) ([3]; Day 10, Cohort 3 (12 mg BID)): 3.951 (2.4984) ng/mL
- Plasma Cavg, geometric mean (geometric CV %) ([3]; Day 10, Cohort 4A (15 mg BID)): 16.70 (5.0410) ng/mL
- Plasma Ctrough, geometric mean (geometric CV %) ([3]; Day 10, Cohort 4A (15 mg BID)): 4.372 ng/mL
- Plasma Cavg, geometric mean (geometric CV %) ([3]; Day 10, Cohort 4B (18 mg BID)): 19.64 (6.8876) ng/mL
- Plasma Ctrough, geometric mean (geometric CV %) ([3]; Day 10, Cohort 4B (18 mg BID)): 5.185 (2.4429) ng/mL
- half-life ([3]; 3 mg, Day 1, single 3 mg dose, Cohort 1, read-out: apparent terminal half-life (converted)): 3.1 h
- Tmax ([3]; 3 mg, Day 1, single 3 mg dose, Cohort 1, read-out: plasma Tmax, median): 1 h
- Cmax ([3]; 3 mg, Day 1, single 3 mg dose, Cohort 1, read-out: plasma geometric mean Cmax): 4.7 ng/mL
- half-life ([3]; 6 mg, Day 1, single 6 mg dose, Cohorts 2, 3, 4A, 4B, read-out: apparent terminal half-life (converted)): 3.1 to 3.3 h
- Tmax ([3]; 6 mg, Day 1, single 6 mg dose, Cohorts 2, 3, 4A, 4B, read-out: plasma Tmax, median): 0.98 to 1.14 h
- Cmax ([3]; 6 mg, Day 1, single 6 mg dose, Cohorts 2, 3, 4A, 4B, read-out: plasma geometric mean Cmax): 7.8 to 12.4 ng/mL
- AUC ([3]; 6 mg, Day 8, Cohort 1 (6 mg TID)): 77.1 ng·h/mL
- Cmax ([3]; 6 mg, Day 8, Cohort 1 (6 mg TID), read-out: Plasma Cmax, geometric mean (geometric CV %)): 16.6 ng/mL
- half-life ([3]; 6 mg, Day 8, Cohort 1 (6 mg TID), read-out: Plasma T1/2, mean (SD) (converted)): 4.49 h
- Tmax ([3]; 6 mg, Day 8, Cohort 1 (6 mg TID), read-out: Plasma Tmax, median (minimum, maximum)): 1.54 h
- AUC ([3]; 6 mg, Day 9, Cohort 1 (6 mg TID)): 84.9 ng·h/mL
- Cmax ([3]; 6 mg, Day 9, Cohort 1 (6 mg TID), read-out: Plasma Cmax, geometric mean (geometric CV %)): 18.4 ng/mL
- half-life ([3]; 6 mg, Day 9, Cohort 1 (6 mg TID), read-out: Plasma T1/2, mean (SD) (converted)): 3.85 h
- Tmax ([3]; 6 mg, Day 9, Cohort 1 (6 mg TID), read-out: Plasma Tmax, median (minimum, maximum)): 0.94 h
- AUC ([3]; 6 mg, Day 10, Cohort 1 (6 mg TID)): 82.6 ng·h/mL
- Cmax ([3]; 6 mg, Day 10, Cohort 1 (6 mg TID), read-out: Plasma Cmax, geometric mean (geometric CV %)): 16.5 ng/mL
- half-life ([3]; 6 mg, Day 10, Cohort 1 (6 mg TID), read-out: Plasma T1/2, mean (SD) (converted)): 4.63 h
